Measured values as given in US20080009418A1, “Selective Inhibitors” (Alchemia LTD., priority 2004, published 2008).

What was measured:
Settings in all cases: compound at 10 μM
Human Melanocortin (MC3) = target: T1, Human Melanocortin (MC3) (Homo sapiens, UniProt P41968); experiment: Radioligand binding, human melanocortin MC3 membranes, FlashPlate, [125I]-NDP-αMSH
T1 construct: purchased Perkin Elmer Biosignal
Protocol: (§1) Cloned receptor membrane preparations from Perkin Elmer Biosignal™ were used in radioligand binding assays.
(§2) A1 Human δ-opioid (DOP), A2 Human κ-Opioid (KOP), A3 Human Melanocortin (MC3), A4 Human Melanocortin (MC4), A5 Human melanocortin (MC5), A6 Human melanin-concentrating hormone (MCH1), A7 Human μ-opioid (MOP), A8 Human neurokinin (NK1), A9 Human neuropeptide Y (NPY-Y1), A10 Human opioid (ORL1) A11 Mouse urotensin (mUR2)
(§3) Screening experiments were performed in either a 50 μl filtration or 25 μl FlashPlate assay format using the following protocol:
(§4) 19.5 μl buffer, 0.5 μl of compound diluted in DMSO, 5 μl of radioligand diluted in binding buffer.
(§5) The day prior to performing the experiment 50 μl DMSO was added to each well of the compound plates to yield compounds at a final concentration of 10 mM. Daughter plates were then created by diluting the compounds further in DMSO to a concentration of 0.5 mM. The mother plates were frozen immediately.
(§6) Immobilize membranes into FlashPlate microplates using PerkinElmer BioSignal's proprietary coating procedure. Dilute radioligand to 5× the final concentration in binding buffer. Add 19.5 μl buffer to each well of the FlashPlate. Add 0.5 μl of DMSO (total value, 5 wells), reference ligand (non-specific value, 3 wells) or compound to the corresponding wells in the FlashPlate microplate. Initiate the reaction by adding 5 μl of radioligand to each well. Apply TopSeal-A onto FlashPlate microplates. Incubate at room temperature for 1 hour in the dark. Count for 30 seconds per well on TopCount Microplate Scintillation and Luminescence Counter (PerkinElmer) using a count delay of 60 seconds.
(§7) Percentage inhibition was calculated using the following formula: [formula]

Human δ-opioid (DOP) = target: T2, Human δ-opioid (DOP) (Homo sapiens, UniProt P41143); experiment: Radioligand binding, human δ-opioid (DOP) membranes, FlashPlate, [3H]-Bremazocine
T2 construct: purchased Perkin Elmer Biosignal
Protocol: as §1, §2, §3, §4, §5, §6, §7

Human Melanocortin (MC4) = target: T3, Human Melanocortin (MC4) (Homo sapiens, UniProt P32245); experiment: Radioligand binding, human melanocortin MC4 membranes, FlashPlate, [125I]-NDP-αMSH
T3 construct: purchased Perkin Elmer Biosignal
Protocol: as §1, §2, §3, §4, §5, §6, §7

Mouse urotensin (mUR2) = target: T4, Mouse urotensin (mUR2) (Mus musculus, UniProt Q8VIH9); experiment: Radioligand binding, mouse urotensin mUR2 membranes, FlashPlate, [125I]-Urotensin II
T4 construct: purchased Perkin Elmer Biosignal
T4 sequence (Q8VIH9 1-385): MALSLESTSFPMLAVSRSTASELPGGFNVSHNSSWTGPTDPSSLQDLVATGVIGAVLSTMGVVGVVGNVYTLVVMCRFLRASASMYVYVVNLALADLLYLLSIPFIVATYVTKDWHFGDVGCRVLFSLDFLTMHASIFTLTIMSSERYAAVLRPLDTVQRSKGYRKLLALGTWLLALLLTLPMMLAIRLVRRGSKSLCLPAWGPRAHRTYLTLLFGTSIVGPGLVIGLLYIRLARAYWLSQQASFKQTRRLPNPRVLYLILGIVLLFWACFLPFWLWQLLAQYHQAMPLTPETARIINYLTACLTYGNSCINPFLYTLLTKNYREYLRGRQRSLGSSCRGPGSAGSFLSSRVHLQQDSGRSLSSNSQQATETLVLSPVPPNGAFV
Protocol: as §1, §2, §3, §4, §5, §6, §7

Human neurokinin (NK1) = target: T5, Human neurokinin (NK1) (Homo sapiens, UniProt P25103); experiment: Radioligand binding, human neurokinin NK1 membranes, filtration, [125I]-Substance P
T5 construct: purchased Perkin Elmer Biosignal
Protocol: as §1, §2, §3
(§8) 44 μl membranes diluted in buffer, 1 μl of compound diluted in DMSO, 5 μl of radioligand diluted in binding buffer.
as §5
(§9) Thaw membranes on ice then dilute membranes in binding buffer at a concentration of 1 Unit per well. Dilute radio-ligand to 10 times the final concentration in binding buffer. Add 44 μl of diluted membranes to each well of the deep-well plate. Add 1 μl of DMSO (total value, 5 wells), reference ligand (non-specific value, 3 wells) or compound to the corresponding wells in the deep-well plate. Initiate the reaction by adding 5 μl of radioligand to each well and vortex gently. Incubate at room temperature for 1 hour. During incubation, pre-incubate the Multiscreen Harvest plates in 0.3% PEI. Filter over pre-soaked Multiscreen Harvest plates using a Tomtec Harvester. Wash 9 times with 500 μl of cold 50 mM Tris-HCl pH 7.4 at 4° C. and air-dry for 30 minutes at room temperature under a fume hood. Apply a bottom seal to the Multiscreen Harvest plates. Add 25 μl of MicroScint-0 to each well. Apply TopSeal-A to the plate. Count for 30 seconds per well on TopCount Microplate Scintillation and Luminescence Counter (PerkinElmer) using a count delay of 60 seconds.
as §7

Human μ-opioid (MOP) = target: T6, Human μ-opioid (MOP) (Homo sapiens, UniProt P35372); experiment: Radioligand binding, human μ-opioid (MOP) membranes, FlashPlate, [3H]-Naloxone
T6 construct: purchased Perkin Elmer Biosignal
Protocol: as §1, §2, §3, §4, §5, §6, §7

[1] = target: T7, Human neuropeptide Y (NPY-Y1) (Homo sapiens, UniProt P25929); experiment: Radioligand binding, human neuropeptide Y NPY-Y1 membranes, FlashPlate, [125I]-PYY
T7 construct: purchased Perkin Elmer Biosignal
T7 sequence (P25929 1-384): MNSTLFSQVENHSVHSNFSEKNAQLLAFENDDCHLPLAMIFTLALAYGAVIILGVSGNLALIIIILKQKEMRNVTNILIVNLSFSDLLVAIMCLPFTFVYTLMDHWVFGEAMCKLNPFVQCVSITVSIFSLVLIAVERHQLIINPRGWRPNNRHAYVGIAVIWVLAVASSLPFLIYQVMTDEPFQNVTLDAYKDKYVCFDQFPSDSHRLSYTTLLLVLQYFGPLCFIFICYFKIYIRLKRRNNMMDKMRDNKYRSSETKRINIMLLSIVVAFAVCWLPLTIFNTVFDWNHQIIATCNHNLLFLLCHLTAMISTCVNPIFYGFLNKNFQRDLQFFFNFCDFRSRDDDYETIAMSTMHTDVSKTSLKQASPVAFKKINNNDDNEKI
Protocol: as §1, §2, §3, §4, §5, §6, §7

Human κ-Opioid (KOP) = target: T8, Human κ-Opioid (KOP) (Homo sapiens, UniProt P41145); experiment: Radioligand binding, human κ-opioid (KOP) membranes, filtration, [3H]-Diprenorphine
T8 construct: purchased Perkin Elmer Biosignal
Protocol: as §1, §2, §3, §8, §5, §9, §7

Human melanocortin (MC5) = target: T9, Human melanocortin (MC5) (Homo sapiens, UniProt P33032); experiment: Radioligand binding, human melanocortin MC5 membranes, FlashPlate, [125I]-NDP-αMSH
T9 construct: purchased Perkin Elmer Biosignal
Protocol: as §1, §2, §3, §4, §5, §6, §7

Human opioid (ORL1) = target: T10, Human opioid (ORL1) (Homo sapiens, UniProt P41146); experiment: Radioligand binding, human opioid ORL1 membranes, FlashPlate, [125I]-Nociceptin
T10 construct: purchased Perkin Elmer Biosignal
Protocol: as §1, §2, §3, §4, §5, §6, §7

[2] = target: T11, Human melanin-concentrating hormone (MCH1) (Homo sapiens, UniProt Q99705); experiment: Radioligand binding, human melanin-concentrating hormone MCH1 membranes, FlashPlate, [125I]-S36057
T11 construct: purchased Perkin Elmer Biosignal
Protocol: as §1, §2, §3, §4, §5, §6, §7

T11 sequence (Q99705 whole entry): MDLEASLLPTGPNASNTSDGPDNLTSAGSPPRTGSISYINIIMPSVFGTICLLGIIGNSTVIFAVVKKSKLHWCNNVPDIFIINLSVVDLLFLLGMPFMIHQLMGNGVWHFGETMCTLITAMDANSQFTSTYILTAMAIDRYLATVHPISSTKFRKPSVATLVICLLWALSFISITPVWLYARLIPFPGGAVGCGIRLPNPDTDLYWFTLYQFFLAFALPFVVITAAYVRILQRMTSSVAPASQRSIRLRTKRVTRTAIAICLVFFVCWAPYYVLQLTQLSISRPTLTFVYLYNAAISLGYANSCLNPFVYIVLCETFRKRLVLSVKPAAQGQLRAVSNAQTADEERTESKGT
T2 sequence (P41143 whole entry): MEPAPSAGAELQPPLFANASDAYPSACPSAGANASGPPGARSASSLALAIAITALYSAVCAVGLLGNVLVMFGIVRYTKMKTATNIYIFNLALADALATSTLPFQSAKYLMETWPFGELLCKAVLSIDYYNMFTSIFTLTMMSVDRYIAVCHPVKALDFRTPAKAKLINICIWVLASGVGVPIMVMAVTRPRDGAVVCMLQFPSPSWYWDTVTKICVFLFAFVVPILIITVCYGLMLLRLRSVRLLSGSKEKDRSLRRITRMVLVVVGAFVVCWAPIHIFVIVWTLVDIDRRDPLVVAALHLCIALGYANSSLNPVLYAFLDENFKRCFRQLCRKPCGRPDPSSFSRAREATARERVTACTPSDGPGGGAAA
T3 sequence (P32245 whole entry): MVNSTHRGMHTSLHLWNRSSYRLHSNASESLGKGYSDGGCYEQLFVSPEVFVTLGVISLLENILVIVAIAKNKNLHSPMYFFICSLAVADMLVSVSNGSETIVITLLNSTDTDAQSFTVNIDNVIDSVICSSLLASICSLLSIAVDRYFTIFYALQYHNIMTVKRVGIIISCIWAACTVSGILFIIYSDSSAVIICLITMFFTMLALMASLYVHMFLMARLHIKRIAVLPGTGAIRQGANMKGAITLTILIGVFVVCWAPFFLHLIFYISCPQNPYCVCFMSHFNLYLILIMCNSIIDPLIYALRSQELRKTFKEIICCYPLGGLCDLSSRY
T9 sequence (P33032 whole entry): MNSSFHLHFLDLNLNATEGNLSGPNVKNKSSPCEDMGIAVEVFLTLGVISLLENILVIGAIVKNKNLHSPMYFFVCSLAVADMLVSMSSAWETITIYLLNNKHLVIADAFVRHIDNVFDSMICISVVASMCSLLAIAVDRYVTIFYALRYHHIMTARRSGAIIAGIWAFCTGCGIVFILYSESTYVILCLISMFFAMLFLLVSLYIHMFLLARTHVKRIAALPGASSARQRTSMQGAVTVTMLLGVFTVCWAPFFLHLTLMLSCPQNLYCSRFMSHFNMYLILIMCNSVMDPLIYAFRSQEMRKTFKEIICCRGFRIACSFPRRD
T1 sequence (P41968 whole entry): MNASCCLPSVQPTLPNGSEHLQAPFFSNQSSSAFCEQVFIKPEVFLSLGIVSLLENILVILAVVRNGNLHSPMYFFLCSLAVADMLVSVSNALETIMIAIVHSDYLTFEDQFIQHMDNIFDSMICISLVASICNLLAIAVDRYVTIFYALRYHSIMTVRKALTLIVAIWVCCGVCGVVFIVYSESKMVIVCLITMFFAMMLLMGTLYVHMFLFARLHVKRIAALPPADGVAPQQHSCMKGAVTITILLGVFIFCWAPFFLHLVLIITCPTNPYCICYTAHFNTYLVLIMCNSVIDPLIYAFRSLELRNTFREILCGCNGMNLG
T5 sequence (P25103 whole entry): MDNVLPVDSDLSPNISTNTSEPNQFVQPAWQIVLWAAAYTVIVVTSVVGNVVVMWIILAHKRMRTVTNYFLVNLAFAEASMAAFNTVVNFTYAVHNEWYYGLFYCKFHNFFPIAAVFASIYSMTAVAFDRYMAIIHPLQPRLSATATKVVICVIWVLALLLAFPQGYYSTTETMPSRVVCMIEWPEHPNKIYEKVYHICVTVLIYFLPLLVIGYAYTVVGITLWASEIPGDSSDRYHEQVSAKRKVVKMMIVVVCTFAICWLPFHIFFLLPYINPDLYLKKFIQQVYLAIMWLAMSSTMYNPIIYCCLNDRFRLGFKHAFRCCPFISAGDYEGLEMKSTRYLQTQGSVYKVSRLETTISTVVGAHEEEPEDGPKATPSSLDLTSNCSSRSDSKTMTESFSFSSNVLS
T8 sequence (P41145 whole entry): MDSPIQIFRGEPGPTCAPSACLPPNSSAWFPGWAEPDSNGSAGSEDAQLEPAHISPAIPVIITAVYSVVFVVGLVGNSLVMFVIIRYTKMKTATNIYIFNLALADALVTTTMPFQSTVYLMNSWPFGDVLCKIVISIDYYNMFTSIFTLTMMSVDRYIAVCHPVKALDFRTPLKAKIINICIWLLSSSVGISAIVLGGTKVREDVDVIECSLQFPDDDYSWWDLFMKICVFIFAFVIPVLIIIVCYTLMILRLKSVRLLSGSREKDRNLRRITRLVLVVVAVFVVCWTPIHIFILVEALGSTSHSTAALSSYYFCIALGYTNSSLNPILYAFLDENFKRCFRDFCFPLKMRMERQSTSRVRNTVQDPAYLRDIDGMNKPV
T10 sequence (P41146 whole entry): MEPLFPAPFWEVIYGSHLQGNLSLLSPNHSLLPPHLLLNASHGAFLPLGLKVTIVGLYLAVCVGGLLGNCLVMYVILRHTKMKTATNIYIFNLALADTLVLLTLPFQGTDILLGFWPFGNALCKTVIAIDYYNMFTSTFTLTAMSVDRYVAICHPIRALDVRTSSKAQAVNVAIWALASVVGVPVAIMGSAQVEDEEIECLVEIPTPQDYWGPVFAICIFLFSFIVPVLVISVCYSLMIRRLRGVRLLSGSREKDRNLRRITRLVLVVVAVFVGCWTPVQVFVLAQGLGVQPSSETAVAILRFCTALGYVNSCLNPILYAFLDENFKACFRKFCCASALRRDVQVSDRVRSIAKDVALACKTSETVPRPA
T6 sequence (P35372 whole entry): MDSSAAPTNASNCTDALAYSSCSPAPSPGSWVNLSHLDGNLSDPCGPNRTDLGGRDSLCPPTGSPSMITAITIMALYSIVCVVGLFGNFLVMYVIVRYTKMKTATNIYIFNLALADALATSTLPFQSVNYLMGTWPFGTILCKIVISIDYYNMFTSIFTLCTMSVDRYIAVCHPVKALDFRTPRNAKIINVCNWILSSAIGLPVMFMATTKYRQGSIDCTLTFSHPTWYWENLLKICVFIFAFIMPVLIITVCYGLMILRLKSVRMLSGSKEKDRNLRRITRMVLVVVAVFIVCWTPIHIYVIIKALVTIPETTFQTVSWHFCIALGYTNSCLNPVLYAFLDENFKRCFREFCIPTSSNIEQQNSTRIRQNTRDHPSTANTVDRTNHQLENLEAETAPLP

CSC1OC(COCc2ccccc2)C(O)C(OCc2cccc(N)c2)C1NC(=O)Cc1c[nH]c2ccccc12 (stereo not shown) [compound 322]
A3: inhibition of radioligand binding, human melanocortin (MC3) (Human Melanocortin (MC3); [125I]-NDP-αMSH): − (“−” indicates less than 50% inhibition at 10 μM)
A1: inhibition of radioligand binding, human δ-opioid (DOP) (Human δ-opioid (DOP); [3H]-Bremazocine): − (“−” indicates less than 50% inhibition at 10 μM)
A4: inhibition of radioligand binding, human melanocortin (MC4) (Human Melanocortin (MC4); [125I]-NDP-αMSH): − (“−” indicates less than 50% inhibition at 10 μM)
A11: inhibition of radioligand binding, mouse urotensin (mUR2) (Mouse urotensin (mUR2); [125I]-Urotensin II): − (“−” indicates less than 50% inhibition at 10 μM)
A8: inhibition of radioligand binding, human neurokinin (NK1) (Human neurokinin (NK1); [125I]-Substance P): + (“+” indicates greater than 50% inhibition at 10 μM)
A7: inhibition of radioligand binding, human μ-opioid (MOP) (Human μ-opioid (MOP); [3H]-Naloxone): − (“−” indicates less than 50% inhibition at 10 μM)
A9: inhibition of radioligand binding, human neuropeptide Y (NPY-Y1) ([1]; [125I]-PYY): − (“−” indicates less than 50% inhibition at 10 μM)
A2: inhibition of radioligand binding, human κ-opioid (KOP) (Human κ-Opioid (KOP); [3H]-Diprenorphine): − (“−” indicates less than 50% inhibition at 10 μM)
A5: inhibition of radioligand binding, human melanocortin (MC5) (Human melanocortin (MC5); [125I]-NDP-αMSH): − (“−” indicates less than 50% inhibition at 10 μM)
A10: inhibition of radioligand binding, human opioid (ORL1) (Human opioid (ORL1); [125I]-Nociceptin): − (“−” indicates less than 50% inhibition at 10 μM)
A6: inhibition of radioligand binding, human melanin-concentrating hormone (MCH1) ([2]; [125I]-S36057): − (“−” indicates less than 50% inhibition at 10 μM)

CO[C@H]1[C@H](O)[C@@H](COCc2ccccc2)OC(OCc2ccc(-c3ccccc3)cc2)[C@@H]1NC(=O)CNC(=N)N (stereo partly shown) [compound 58]
A3 radioligand binding inhibition (Human Melanocortin (MC3); human melanocortin MC3 membranes): − (“−” indicates less than 50% inhibition at 10 μM)
A1 radioligand binding inhibition (Human δ-opioid (DOP); human δ-opioid (DOP) membranes): − (“−” indicates less than 50% inhibition at 10 μM)
A4 radioligand binding inhibition (Human Melanocortin (MC4); human melanocortin MC4 membranes): + (“+” indicates greater than 50% inhibition at 10 μM)
A11 radioligand binding inhibition (Mouse urotensin (mUR2); mouse urotensin mUR2 membranes): − (“−” indicates less than 50% inhibition at 10 μM)
A8 radioligand binding inhibition (Human neurokinin (NK1); human neurokinin NK1 membranes): + (“+” indicates greater than 50% inhibition at 10 μM)
A7 radioligand binding inhibition (Human μ-opioid (MOP); human μ-opioid (MOP) membranes): + (“+” indicates greater than 50% inhibition at 10 μM)
A9 radioligand binding inhibition ([1]; human NPY-Y1 membranes): − (“−” indicates less than 50% inhibition at 10 μM)
A2 radioligand binding inhibition (Human κ-Opioid (KOP); human κ-opioid (KOP) membranes): + (“+” indicates greater than 50% inhibition at 10 μM)
A5 radioligand binding inhibition (Human melanocortin (MC5); human melanocortin MC5 membranes): + (“+” indicates greater than 50% inhibition at 10 μM)
A10 radioligand binding inhibition (Human opioid (ORL1); human ORL1 membranes): − (“−” indicates less than 50% inhibition at 10 μM)
A6 radioligand binding inhibition ([2]; human MCH1 membranes): − (“−” indicates less than 50% inhibition at 10 μM)
